Like-named read-outs stand apart in the source and are kept apart here.
Experiments:
Format in all cases: cell-based
BaF3_HER2YVMA cells = assay: Cell growth inhibition assay, BaF3_HER2YVMA; conditions: BaF3_HER2YVMA cells, 3 days treatment, CellTiterGlo 2.0, read-out: HER2-YVMA IC50 (nM), cell growth inhibition
BaF3_HER2WT cells = assay: Cell growth inhibition assay, BaF3_HER2WT; conditions: 3 days treatment, CellTiterGlo 2.0, read-out: HER2 WT IC50 (nM), cell growth inhibition
BaF3_EGFRWT cells = assay: Cell growth inhibition assay, BaF3_EGFRWT; conditions: 80 ng/mL recombinant human EGF, 3 days treatment, CellTiterGlo 2.0, read-out: EGFR WT IC50 (nM), cell growth inhibition

| IC50 (BaF3_HER2YVMA cells) | IC50 (BaF3_HER2WT cells; 72 h) | IC50 (BaF3_EGFRWT cells; 72 h) | IC50 (BaF3_HER2YVMA cells; 72 h) | IC50 (BaF3_HER2WT cells) | IC50 (BaF3_EGFRWT cells) | SMILES |
| --- | --- | --- | --- | --- | --- | --- |
| 500 to 1500 nM | < 200 nM | 1500 to 5000 nM |  |  |  | C=C(CN(C)C)C(=O)N1CCCC(c2ccn3ncnc(Nc4ccc(Oc5ccn6ncnc6c5)c(C)c4)c23)CC1 (single isomer, unassigned) [Examples 143 and 144, first eluting isomer, 1-(4-(4-((4-([1,2,4]triazolo[1,5-a]pyridin-7-yloxy)-3-methylphenyl)amino)pyrrolo[2,1-f][1,2,4]triazin-5-yl)azepan-1-yl)-2-((dimethylamino)methyl)prop-2-en-1-one] |
|  | 200 to 500 nM | 1500 to 5000 nM | 200 to 500 nM |  |  | COC/C=C/C(=O)N1CC(c2ccn3ncnc(Nc4ccc(Oc5ccn6ncnc6c5)c(C)c4)c23)C1 [Example 40, (E)-1-(3-(4-((4-([1,2,4]triazolo[1,5-a]pyridin-7-yloxy)-3-methylphenyl)amino)pyrrolo[2,1-f][1,2,4]triazin-5-yl)azetidin-1-yl)-4-methoxybut-2-en-1-one] |
|  | < 200 nM | 1500 to 5000 nM | < 200 nM |  |  | Cc1cc(Nc2ncnn3ccc(C4CCN(C(=O)/C=C/CN5CC6COCC6C5)CC4)c23)ccc1Oc1ccn2ncnc2c1 (stereo not drawn) [Example 119, E-1-(4-(4-((4-([1,2,4]triazolo[1,5-a]-208-midazol-7-yloxy)-3-methylphenyl)amino)pyrrolo[2,1-f][1,2,4]triazin-5-yl)piperidin-1-yl)-4-(tetrahydro-1H-furo[3,4-c]pyrrol-5(3H)-yl)but-2-en-1-one] |
|  | < 200 nM | 1500 to 5000 nM | < 200 nM |  |  | CO[C@@H]1CN(C/C=C/C(=O)N2CCC(c3ccn4ncnc(Nc5ccc(Oc6ccn7ncnc7c6)c(C)c5)c34)CC2)C[C@H]1OC [Example 170, (E)-1-(4-(4-((4-([1,2,4]triazolo[1,5-a]pyridin-7-yloxy)-3-methylphenyl)amino)pyrrolo[2,1-f][1,2,4]triazin-5-yl)piperidin-1-yl)-4-((3R,4R)-3,4-dimethoxypyrrolidin-1-yl)but-2-en-1-one] |
|  | < 200 nM | 1500 to 5000 nM | < 200 nM |  |  | CNC/C=C/C(=O)N1CCC(c2ccn3ncnc(Nc4ccc(Oc5ccn6ncnc6c5)c(C)c4)c23)CC1 [Example 177, (E)-1-(4-(4-((4-([1,2,4]triazolo[1,5-a]pyridin-7-yloxy)-3-methylphenyl)amino)pyrrolo[2,1-f][1,2,4]triazin-5-yl)piperidin-1-yl)-4-(methylamino)but-2-en-1-one] |
|  | < 200 nM | 1500 to 5000 nM | < 200 nM |  |  | Cc1cc(Nc2ncnn3ccc(C4CN(C(=O)/C=C\C56CCCN5CCC6)C4)c23)ccc1Oc1ccn2ncnc2c1 [Example 160, (Z)-1-(3-(4-((4-([1,2,4]triazolo[1,5-a]pyridin-7-yloxy)-3-methylphenyl)amino)pyrrolo[2,1-f][1,2,4]triazin-5-yl)azetidin-1-yl)-3-(tetrahydro-1H-pyrrolizin-7a(5H)-yl)prop-2-en-1-one] |
|  | < 200 nM | 1500 to 5000 nM | < 200 nM |  |  | COC1CCN(C/C=C/C(=O)N2CC(c3ccn4ncnc(Nc5ccc(Oc6ccn7ncnc7c6)c(C)c5)c34)C2)C1 (stereo not drawn) [Example 41, (E)-1-(3-(4-((4-([1,2,4]triazolo[1,5-a]pyridin-7-yloxy)-3-methylphenyl)amino)pyrrolo[2,1-f][1,2,4]triazin-5-yl)azetidin-1-yl)-4-(3-methoxypyrrolidin-1-yl)but-2-en-1-one] |
| 500 to 1500 nM |  |  |  | 200 to 500 nM | 1500 to 5000 nM | Cc1cc(Nc2ncnn3ccc(C4CCCN(C(=O)C(F)Cl)CC4)c23)ccc1Oc1ccn2ncnc2c1 (single isomer, unassigned) [Examples 145, 146, 147 and 148, third eluting isomer, 1-(4-(4-((4-([1,2,4]triazolo[1,5-a]pyridin-7-yloxy)-3-methylphenyl)amino)pyrrolo[2,1-f][1,2,4]triazin-5-yl)azepan-1-yl)-2-chloro-2-fluoroethan-1-one] |
|  | < 200 nM | 1500 to 5000 nM | < 200 nM |  |  | Cc1cc(Nc2ncnn3ccc(C4CCN(C(=O)/C=C/CN5CCC(F)C5)CC4)c23)ccc1Oc1ccn2ncnc2c1 (stereo not drawn) [Example 164, (E)-1-(4-(4-((4-([1,2,4]triazolo[1,5-a]pyridin-7-yloxy)-3-methylphenyl)amino)pyrrolo[2,1-f][1,2,4]triazin-5-yl)piperidin-1-yl)-4-(3-fluoropyrrolidin-1-yl)but-2-en-1-one] |
| 200 to 500 nM | < 200 nM |  |  |  | 1500 to 5000 nM | Cc1cc(Nc2ncnn3ccc(C4CCCN(C(=O)C(F)Cl)CC4)c23)ccc1Oc1ccn2ncnc2c1 (single isomer, unassigned) [Examples 145, 146, 147 and 148, first eluting isomer, 1-(4-(4-((4-([1,2,4]triazolo[1,5-a]pyridin-7-yloxy)-3-methylphenyl)amino)pyrrolo[2,1-f][1,2,4]triazin-5-yl)azepan-1-yl)-2-chloro-2-fluoroethan-1-one] |
| 1500 to 5000 nM |  |  |  | 500 to 1500 nM | 1500 to 5000 nM | Cc1cc(Nc2ncnn3ccc(C4CCCN(C(=O)/C=C/CN(C)C)C4)c23)ccc1Oc1ccn2ncnc2c1 (single isomer, unassigned) [Examples 107 and 108, second eluting isomer, (E)-1-(3-(4-((4-([1,2,4]triazolo[1,5-a]pyridin-7-yloxy)-3-methylphenyl)amino)pyrrolo[2,1-f][1,2,4]triazin-5-yl)piperidin-1-yl)-4-(dimethylamino)but-2-en-1-one] |

Further lines, the compound ahead of its results:

| SMILES | IC50 (BaF3_HER2YVMA cells) | IC50 (BaF3_HER2WT cells; 72 h) | IC50 (BaF3_EGFRWT cells; 72 h) | IC50 (BaF3_HER2YVMA cells; 72 h) | IC50 (BaF3_HER2WT cells) | IC50 (BaF3_EGFRWT cells) |
| --- | --- | --- | --- | --- | --- | --- |
| C=C(CN(C)C)C(=O)N1C2CCC1CC(c1ccn3ncnc(Nc4ccc(Oc5ccn6ncnc6c5)c(C)c4)c13)C2 (single isomer, unassigned) [Examples 126 and 127, first eluting isomer, 1-(3-(4-((4-([1,2,4]triazolo[1,5-a]pyridin-7-yloxy)-3-methylphenyl)amino)pyrrolo[2,1-f][1,2,4]triazin-5-yl)-8-azabicyclo[3.2.1]octan-8-yl)-2-((dimethylamino)methyl)prop-2-en-1-one] | 200 to 500 nM | < 200 nM | 1500 to 5000 nM |  |  |  |
| Cc1cc(Nc2ncnn3ccc(C4CN(C(=O)/C(F)=C/C5CCCN5C)C4)c23)ccc1Oc1ccn2ncnc2c1 (stereo not drawn) [Example 92, (Z)-1-(3-(4-((4-([1,2,4]triazolo[1,5-a]pyridin-7-yloxy)-3-methylphenyl)amino)pyrrolo[2,1-f][1,2,4]triazin-5-yl)azetidin-1-yl)-2-fluoro-3-(1-methylpyrrolidin-2-yl)prop-2-en-1-one] |  | < 200 nM | 1500 to 5000 nM | < 200 nM |  |  |
| CNC/C=C/C(=O)N1CC(c2ccn3ncnc(Nc4ccc(Oc5ccc6c(c5)ncn6C)c(C)c4)c23)C1 [Example 153, (E)-1-(3-(4-((3-methyl-4-((1-methyl-1H-benzo[d]imidazol-5-yl)oxy)phenyl)amino)pyrrolo[2,1-f][1,2,4]triazin-5-yl)azetidin-1-yl)-4-(methylamino)but-2-en-1-one] |  | 1500 to 5000 nM | 1500 to 5000 nM | 1500 to 5000 nM |  |  |
| Cc1cc(Nc2ncnn3ccc(C4CN(C(=O)/C=C/CN5CC(F)C5)C4)c23)ccc1Oc1ccc2c(c1)ncn2C [Example 161, (E)-4-(3-fluoroazetidin-1-yl)-1-(3-(4-((3-methyl-4-((1-methyl-1H-benzo[d]imidazol-5-yl)oxy)phenyl)amino)pyrrolo[2,1-f][1,2,4]triazin-5-yl)azetidin-1-yl)but-2-en-1-one] |  | < 200 nM | 1500 to 5000 nM | < 200 nM |  |  |
| C=C(F)C(=O)N1CC=C(c2ccn3ncnc(Nc4ccc(Oc5ccn6ncnc6c5)c(C)c4)c23)CC1 [Example 26, 1-(4-(4-((4-([1,2,4]triazolo[1,5-a]pyridin-7-yloxy)-3-methylphenyl)amino)pyrrolo[2,1-f][1,2,4]triazin-5-yl)-3,6-dihydropyridin-1(2H)-yl)-2-fluoroprop-2-en-1-one] |  | 200 to 500 nM | 1500 to 5000 nM | 1500 to 5000 nM |  |  |
| Cc1cc(Nc2ncnn3ccc(C4CCN(C(=O)/C=C/CN5CCC6(COC6)C5)CC4)c23)ccc1Oc1ccc2c(c1)ncn2C [Example 129, (E)-1-(4-(4-((3-methyl-4-((1-methyl-1H-benzo[d]imidazol-5-yl)-oxy)phenyl)amino)-pyrrolo[2,1-f][1,2,4]triazin-5-yl)piperidin-1-yl)-4-(2-oxa-6-azaspiro[3.4]octan-6-yl)but-2-en-1-one] |  | < 200 nM | 1500 to 5000 nM | < 200 nM |  |  |
| Cc1cc(Nc2ncnn3ccc(N4CC5CCC(C4)N5C(=O)/C=C/CN(C)C)c23)ccc1Oc1ccn2ncnc2c1 [Example 47, (E)-1-(3-(4-((4-([1,2,4]triazolo[1,5-a]pyridin-7-yloxy)-3-methylphenyl)amino)pyrrolo[2,1-f][1,2,4]triazin-5-yl)-3,8-diazabicyclo[3.2.1]octan-8-yl)-4-(dimethylamino)but-2-en-1-one] |  | < 200 nM | 1500 to 5000 nM | < 200 nM |  |  |
| C=CC(=O)N1CCN(c2ccn3ncnc(Nc4ccc(Oc5ccn6ncnc6c5)c(C)c4)c23)CC12CC2 [Example 75, 1-(7-(4-((4-([1,2,4]triazolo[1,5-a]pyridin-7-yloxy)-3-methylphenyl)amino)pyrrolo[2,1-f][1,2,4]triazin-5-yl)-4,7-diazaspiro[2.5]octan-4-yl)prop-2-en-1-one] |  | < 200 nM | 500 to 1500 nM | < 200 nM |  |  |
| Cc1cc(Nc2ncnn3ccc(C(=O)NCCCN(C)C)c23)ccc1N [Example 181, 4-((4-amino-3-methylphenyl)amino)-N-(3-(dimethylamino)propyl)pyrrolo[2,1-f][1,2,4]triazine-5-carboxamide] |  | 1500 to 5000 nM | > 5000 nM | > 5000 nM |  |  |

Reference: patent US20250276983A1, “COMPOUNDS AND METHODS FOR MODULATING HER2” (IAMBIC THERAPEUTICS, INC., priority 2022, published 2025)
